Measured values taken from patent US20150191469A1, “COMPOUNDS AND METHODS FOR TREATING HIV” (priority 2012, published 2015).

The compounds below were run on HIV (assay: MT4 assay: antiviral HIV activity (cell protection, cell titer glo readout at 96 hours)). Details: Human immunodeficiency virus 1, MT4, 96 h, MT4 cells, cell titer glo readout at 96 hours, 10 point dose response; read-out: HIV MT4 Assay IC50.
Type: cell-based
Procedure, shortened: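 MT-4 cells infected with HIV, with inhibition readout by CellTiter-Glo luminescence at 96 h relative to no-compound control. Cytotoxicity measured in parallel under the same conditions. IC50 from a 10-point, 3-4-fold dilution series spanning >1000-fold, fitted with a four-parameter logistic equation.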

Row | Compound | IC50 [nM]
1 | Cc1nc2c(cc(-c3ccnc(N4CCCN(C(=O)C5CCOC5)CC4)c3)n2C)c(-c2cc(F)c3c(c2C)CCCO3)c1[C@H](OC(C)(C)C)C(=O)O (stereo partly shown) [Example 105] | 54.6
2 | Cc1nc2c(cc(-c3ccnc(N4CCC(Oc5ccccc5)C4)c3)n2C)c(-c2cc(F)c3c(c2C)CCCO3)c1[C@H](OC(C)(C)C)C(=O)O (stereo partly shown) [Example 107] | 44.5
3 | CCN(CC)C1C[C@H]2CC[C@@H](C1)N2c1cc(-c2cc3c(-c4cc(F)c5c(c4C)CCCO5)c([C@H](OC(C)(C)C)C(=O)O)c(C)nc3n2C)ccn1 (stereo partly shown) [Example 110] | 45
4 | Cc1nc2c(cc(-c3ccnc(NC4C[C@H]5CC[C@@H](C4)N5C)c3)n2C)c(-c2cc(F)c3c(c2C)CCCO3)c1[C@H](OC(C)(C)C)C(=O)O (stereo partly shown) [Example 112] | 1330
5 | Cc1nc2c(cc(-c3ccnc(N4CCN5CCCC5C4)c3)n2C)c(-c2cc(F)c3c(c2C)CCCO3)c1[C@H](OC(C)(C)C)C(=O)O (stereo partly shown) [Example 116] | 40
6 | Cc1nc2c(cc(-c3ccnc(N4CC5CN(C6COC6)CC5C4)c3)n2C)c(-c2cc(F)c3c(c2C)CCCO3)c1[C@H](OC(C)(C)C)C(=O)O (stereo partly shown) [Example 121] | 15
7 | Cc1nc2c(cc(-c3ccnc(N4CCN5CCC4C5)c3)n2C)c(-c2cc(F)c3c(c2C)CCCO3)c1[C@H](OC(C)(C)C)C(=O)O (stereo partly shown) [Example 123] | 164
8 | Cc1nc2c(cc(-c3ccnc(N4CCCN5CCCC5C4)c3)n2C)c(-c2cc(F)c3c(c2C)CCCO3)c1[C@H](OC(C)(C)C)C(=O)O (stereo partly shown) [Example 124] | 32.5
9 | Cc1nc2c(cc(-c3ccnc(N4CCCN(C5CCOC5)CC4)c3)n2C)c(-c2cc(F)c3c(c2C)CCCO3)c1[C@H](OC(C)(C)C)C(=O)O (stereo partly shown) [Example 126] | 22.5
10 | Cc1nc2c(cc(-c3cncc(-c4ccc5c(cnn5C)c4)c3)n2C)c(-c2cc(F)c3c(c2C)CCCO3)c1[C@H](OC(C)(C)C)C(=O)O [Example 138] | 1.5
11 | Cc1nc2c(cc(-c3cc(-c4ccc5c(cnn5C)c4)ccn3)n2C)c(-c2cc(F)c3c(c2C)CCCO3)c1[C@H](OC(C)(C)C)C(=O)O [Example 139] | 2
12 | Cc1nc2c(cc(-c3cc(-c4ccc5c(cnn5C)c4)[nH]n3)n2C)c(-c2cc(F)c3c(c2C)CCCO3)c1[C@H](OC(C)(C)C)C(=O)O [Example 140] | 14.1
13 | Cc1nc2c(cc(-c3nc(-c4ccc5c(cnn5C)c4)nn3C)n2C)c(-c2cc(F)c3c(c2C)CCCO3)c1[C@H](OC(C)(C)C)C(=O)O [Example 141] | 149
14 | Cc1nc2c(cc(-c3cc(-c4ccc5c(cnn5C)c4)ncn3)n2C)c(-c2cc(F)c3c(c2C)CCCO3)c1[C@H](OC(C)(C)C)C(=O)O [Example 142] | 1.8
15 | Cc1nc2c(cc(-c3cnc(-c4ccc5c(cnn5C)c4)s3)n2C)c(-c2cc(F)c3c(c2C)CCCO3)c1[C@H](OC(C)(C)C)C(=O)O [Example 143] | 12.5
16 | Cc1nc2c(cc(C(=O)N3CCCN(C4COC4)CC3)n2C)c(-c2cc(F)c3c(c2C)CCCO3)c1[C@H](OC(C)(C)C)C(=O)O [Example 162] | 3650
17 | Cc1nc2c(cc(C(=O)Nc3ccc4c(cnn4C)c3)n2C)c(-c2cc(F)c3c(c2C)CCCO3)c1[C@H](OC(C)(C)C)C(=O)O [Example 163] | 43

Row | Compound | IC50 [nM]
18 | Cc1nc2c(cc(C(=O)N3CCC(Oc4ccc(C#N)cc4)CC3)n2C)c(-c2cc(F)c3c(c2C)CCCO3)c1[C@H](OC(C)(C)C)C(=O)O [Example 164] | 42.2
19 | Cc1nc2c(cc(C(=O)N3CCC(NC(=O)c4cncn4C)CC3)n2C)c(-c2cc(F)c3c(c2C)CCCO3)c1[C@H](OC(C)(C)C)C(=O)O [Example 165] | 50000
20 | Cc1nc2c(cc(C(=O)N3CCn4cnnc4C3)n2C)c(-c2cc(F)c3c(c2C)CCCO3)c1[C@H](OC(C)(C)C)C(=O)O [Example 166] | 50000
21 | Cc1nc2c(cc(C(=O)N3CCc4ccc(S(=O)(=O)NC(C)C)cc4C3)n2C)c(-c2cc(F)c3c(c2C)CCCO3)c1[C@H](OC(C)(C)C)C(=O)O [Example 167] | 357
22 | Cc1nc2c(cc(CNC(=O)N3CCCN(C4COC4)CC3)n2C)c(-c2cc(F)c3c(c2C)CCCO3)c1[C@H](OC(C)(C)C)C(=O)O [Example 168] | 12600
23 | Cc1nc2c(cc(C(=O)N3CCN(c4ccncc4)CC3)n2C)c(-c2cc(F)c3c(c2C)CCCO3)c1[C@H](OC(C)(C)C)C(=O)O [Example 169] | 1240
24 | Cc1nc2c(cc(C(=O)N3CCC(c4ccccc4)CC3)n2C)c(-c2cc(F)c3c(c2C)CCCO3)c1[C@H](OC(C)(C)C)C(=O)O [Example 170] | 4.2
25 | Cc1nc2c(cc(C(=O)N3CCC(c4ccncc4)CC3)n2C)c(-c2cc(F)c3c(c2C)CCCO3)c1[C@H](OC(C)(C)C)C(=O)O [Example 171] | 32.6
26 | Cc1nc2c(cc(C(=O)N3CCN(c4ccccc4)CC3)n2C)c(-c2cc(F)c3c(c2C)CCCO3)c1[C@H](OC(C)(C)C)C(=O)O [Example 172] | 5.9
27 | Cc1nc2c(cc(C(=O)N3CCN(C)CC3)n2C)c(-c2cc(F)c3c(c2C)CCCO3)c1[C@H](OC(C)(C)C)C(=O)O [Example 173] | 354
28 | Cc1nc2c(cc(C(=O)N3CCc4ccccc4C3)n2C)c(-c2cc(F)c3c(c2C)CCCO3)c1[C@H](OC(C)(C)C)C(=O)O [Example 174] | 3.6
29 | Cc1nc2c(cc(C(=O)N3CCC(c4ccc(C#N)cc4)CC3)n2C)c(-c2cc(F)c3c(c2C)CCCO3)c1[C@H](OC(C)(C)C)C(=O)O [Example 175] | 4.8
30 | Cc1nc2c(cc(C(=O)N3CCC(C)CC3)n2C)c(-c2cc(F)c3c(c2C)CCCO3)c1[C@H](OC(C)(C)C)C(=O)O [Example 176] | 25.6
31 | Cc1nc2c(cc(C(=O)N3CCC(c4cccc(C#N)c4)CC3)n2C)c(-c2cc(F)c3c(c2C)CCCO3)c1[C@H](OC(C)(C)C)C(=O)O [Example 177] | 4.7
32 | Cc1nc2c(cc(C(=O)N3CCC(c4ccc(C(N)=O)cc4)CC3)n2C)c(-c2cc(F)c3c(c2C)CCCO3)c1[C@H](OC(C)(C)C)C(=O)O [Example 178] | 176
33 | Cc1nc2c(cc(C(=O)N3C[C@@H]4CC[C@H]3CN(C3COC3)C4)n2C)c(-c2cc(F)c3c(c2C)CCCO3)c1[C@H](OC(C)(C)C)C(=O)O [Example 188] | 86.7

Further lines, results first:

Row | IC50 [nM] | Compound
34 | 847 | Cc1nc2c(cc(C(=O)N3CCC[C@H]3C(=O)N(C)c3ccc4c(cnn4C)c3)n2C)c(-c2cc(F)c3c(c2C)CCCO3)c1[C@H](OC(C)(C)C)C(=O)O [Example 179]
35 | 1920 | Cc1nc2c(cc(C(=O)N3CCN(S(C)(=O)=O)CC3)n2C)c(-c2cc(F)c3c(c2C)CCCO3)c1[C@H](OC(C)(C)C)C(=O)O [Example 180]
36 | 42 | Cc1nc2c(cc(C(=O)N3CCC(F)(F)CC3)n2C)c(-c2cc(F)c3c(c2C)CCCO3)c1[C@H](OC(C)(C)C)C(=O)O [Example 181]
37 | 131 | Cc1nc2c(cc(C(=O)N3CCN4CCCC4C3)n2C)c(-c2cc(F)c3c(c2C)CCCO3)c1[C@H](OC(C)(C)C)C(=O)O (stereo partly shown) [Example 182]
38 | 33.9 | Cc1nc2c(cc(C(=O)N3CCc4ccccc43)n2C)c(-c2cc(F)c3c(c2C)CCCO3)c1[C@H](OC(C)(C)C)C(=O)O [Example 183]
39 | 42 | Cc1nc2c(cc(C(=O)N3Cc4ccccc4C3)n2C)c(-c2cc(F)c3c(c2C)CCCO3)c1[C@H](OC(C)(C)C)C(=O)O [Example 184]
40 | 32.2 | Cc1nc2c(cc(-c3ccn(C4CN(C(=O)OC(C)(C)C)C4)n3)n2C)c(-c2cc(F)c3c(c2C)CCCO3)c1[C@H](OC(C)(C)C)C(=O)O [Example 185]
41 | 41.1 | Cc1nc2c(cc(-c3cnn(CC4CN(C(=O)OC(C)(C)C)C4)c3)n2C)c(-c2cc(F)c3c(c2C)CCCO3)c1[C@H](OC(C)(C)C)C(=O)O [Example 186]
42 | 26.5 | Cc1nc2c(cc(-c3ccn(C4CN(C5CCOCC5)C4)n3)n2C)c(-c2cc(F)c3c(c2C)CCCO3)c1[C@H](OC(C)(C)C)C(=O)O [Example 187]
43 | 1190 | Cc1nc2c(cc(C(=O)N3CC4CN(C5COC5)CC4C3)n2C)c(-c2cc(F)c3c(c2C)CCCO3)c1[C@H](OC(C)(C)C)C(=O)O (stereo partly shown) [Example 189]
44 | 14.1 | Cc1nc2c(cc(C(=O)N[C@H](C)c3ccccc3)n2C)c(-c2cc(F)c3c(c2C)CCCO3)c1[C@H](OC(C)(C)C)C(=O)O [Example 190]
45 | 4.9 | Cc1nc2c(cc(C(=O)N3CCC(c4c[nH]c5ccccc45)CC3)n2C)c(-c2cc(F)c3c(c2C)CCCO3)c1[C@H](OC(C)(C)C)C(=O)O [Example 191]
46 | 16.6 | Cc1nc2c(cc(C(=O)N(C)Cc3ccccc3)n2C)c(-c2cc(F)c3c(c2C)CCCO3)c1[C@H](OC(C)(C)C)C(=O)O [Example 192]
47 | 12.3 | Cc1nc2c(cc(C(=O)N3CCC4(CCCC4)CC3)n2C)c(-c2cc(F)c3c(c2C)CCCO3)c1[C@H](OC(C)(C)C)C(=O)O [Example 193]
48 | 1.5 | Cc1nc2c(cc(C(=O)N3CC(c4ccccc4)C3)n2C)c(-c2cc(F)c3c(c2C)CCCO3)c1[C@H](OC(C)(C)C)C(=O)O [Example 194]
49 | 26 | Cc1nc2c(cc(C(=O)NC(C)(C)c3ccccc3)n2C)c(-c2cc(F)c3c(c2C)CCCO3)c1[C@H](OC(C)(C)C)C(=O)O [Example 195]
50 | 12.3 | Cc1nc2c(cc(C(=O)N3CCN(C(C)c4ccccc4)CC3)n2C)c(-c2cc(F)c3c(c2C)CCCO3)c1[C@H](OC(C)(C)C)C(=O)O (stereo partly shown) [Example 196]
51 | 6810 | CC(=O)N1CCCN(C(=O)c2cc3c(-c4cc(F)c5c(c4C)CCCO5)c([C@H](OC(C)(C)C)C(=O)O)c(C)nc3n2C)CC1 [Example 197]
52 | 26.3 | Cc1nc2c(cc(C(=O)N3CCN(C(=O)OCc4ccccc4)CC3)n2C)c(-c2cc(F)c3c(c2C)CCCO3)c1[C@H](OC(C)(C)C)C(=O)O [Example 198]
53 | 27.6 | Cc1nc2c(cc(C(=O)N3CCN(c4ncccn4)CC3)n2C)c(-c2cc(F)c3c(c2C)CCCO3)c1[C@H](OC(C)(C)C)C(=O)O [Example 199]
54 | 8050 | Cc1nc2c(cc(C(=O)N3CCC4(CC3)CC(Cc3cccnc3)C(=O)O4)n2C)c(-c2cc(F)c3c(c2C)CCCO3)c1[C@H](OC(C)(C)C)C(=O)O (stereo partly shown) [Example 200]
55 | 65.7 | Cc1nc2c(cc(C(=O)N3CCN(C(=O)C4CCCCC4)CC3)n2C)c(-c2cc(F)c3c(c2C)CCCO3)c1[C@H](OC(C)(C)C)C(=O)O [Example 201]
